What was measured:
wild oat = assay: Test B pre/postemergence wild oat; format: in vivo, Avena fatua
In short: (§1)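 Response is a visual 0-to-10 score relative to untreated plants, where 0 means no effect and 10 means complete control, taken twelve to sixteen days after application. Treatments went onto soil at planting and onto foliage of 1- to 4-leaf plants, using a surfactant-containing non-phytotoxic solvent.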

blackgrass = assay: Test B pre/postemergence blackgrass; format: in vivo, Alopecurus myosuroides
In short: as §1

crabgrass = assay: Test B pre/postemergence crabgrass; format: in vivo, Digitaria sanguinalis
In short: as §1

purple nutsedge = assay: Test B pre/postemergence purple nutsedge; format: in vivo, Cyperus rotundus
In short: as §1

smallflower flatsedge = assay: Test B flood test smallflower flatsedge; format: in vivo, Cyperus difformis; details: flood test species
In short: (§2)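 Flood test on plants grown to the 2-leaf stage; treated plants kept in greenhouse twelve to sixteen days, then visually rated against controls on a 0 (no effect) to 10 (complete control) scale.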

pigweed = assay: Test B pre/postemergence pigweed; format: in vivo, Amaranthus retroflexus
In short: as §1

rape = assay: Test B pre/postemergence rape; format: in vivo, Brassica napus
In short: as §1

cocklebur = assay: Test B pre/postemergence cocklebur; format: in vivo, Xanthium strumarium
In short: as §1

giant foxtail = assay: Test B pre/postemergence giant foxtail; format: in vivo, Setaria faberii
In short: as §1

wheat = assay: Test B pre/postemergence wheat; format: in vivo, Triticum aestivum
In short: as §1

duck salad = assay: Test B flood test duck salad; format: in vivo, Heteranthera limosa; details: flood test species
In short: as §2

bamyardgrass = assay: Test B flood test barnyardgrass; format: in vivo, Echinochloa crus-galli; details: flood test species
In short: as §2

morningglory = assay: Test B pre/postemergence morningglory; format: in vivo, Ipomoea hederacea
In short: as §1

rice = assay: Test B flood test rice; format: in vivo, Oryza sativa; details: flood test species
In short: as §2

velvetleaf = assay: Test B pre/postemergence velvetleaf; format: in vivo, Abutilon theophrasti
In short: as §1

bedstraw = assay: Test B pre/postemergence bedstraw; format: in vivo, Galium aparine; details: Postemergence, Rate 500 g/ha; scale of 0 to 10 where 0 is no effect and 10 is complete control
In short: as §1

corn = assay: Test B pre/postemergence corn; format: in vivo, Zea mays
In short: as §1

sugar beet = assay: Test B pre/postemergence sugar beet; format: in vivo, Beta vulgaris
In short: as §1

soybean = assay: Test B pre/postemergence soybean; format: in vivo, Glycine max
In short: as §1

surinam grass = assay: Test B pre/postemergence surinam grass; format: in vivo, Brachiaria decumbens
In short: as §1

[1] = Postemergence, Rate 500 g/ha, scale of 0 to 10 where 0 is no effect and 10 is complete control
[2] = Preemergence, Rate 62 g/ha, scale 0 to 10 (0 no effect, 10 complete control)
[3] = Preemergence, Rate 125 g/ha, scale of 0 to 10 where 0 is no effect and 10 is complete control
[4] = Preemergence, Rate 250 g/ha, scale 0 to 10, 0 is no effect, 10 is complete control
[5] = Preemergence, Rate 500 g/ha, scale 0 to 10, 0 is no effect, 10 is complete control
[6] = Postemergence, Rate 125 g/ha, scale 0 to 10, 0 is no effect, 10 is complete control
[7] = Postemergence, Rate 250 g/ha, scale 0 to 10, 0 is no effect, 10 is complete control
[8] = Preemergence, Rate 250 g/ha, scale of 0 to 10 where 0 is no effect and 10 is complete control
[9] = Rate 62 g/ha, Postemergence, scale of 0 to 10 where 0 is no effect and 10 is complete control
[10] = Rate 62 g/ha, Pre-emergence, visual evaluation after twelve to sixteen days
[11] = Rate 125 g/ha, under heading Pre-emergence, visual evaluation after twelve to sixteen days
[12] = Rate 500 g/ha, Pre-emergence, scale 0 to 10 (0 no effect, 10 complete control)

SMILES: CC(C)Cn1c(=O)on(C(=O)N(c2ccccc2)C(C)C)c1=O [Compound 410]
- Wild oats plant response rating (wild oat; [1]): 5
- Plant response rating, Wild oats (wild oat; [2]): 3
- Plant response rating, Wild oats (wild oat; [3]): 6
- Wild oats plant response rating (wild oat; [4]): 7
- Wild oats plant response rating (wild oat; [5]): 10
- Plant response rating, Blackgrass (blackgrass; [6]): 8
- Plant response rating, Blackgrass (blackgrass; [7]): 9
- Blackgrass plant response rating (blackgrass; [1]): 9
- Plant response rating, Blackgrass (blackgrass; [2]): 3
- Plant response rating, Blackgrass (blackgrass; [3]): 8
- Blackgrass plant response rating (blackgrass; [8]): 8
- Blackgrass plant response rating (blackgrass; [5]): 10
- Plant response rating, Crabgrass (crabgrass; [6]): 4
- Plant response rating, Crabgrass (crabgrass; [7]): 8
- Crabgrass plant response rating (crabgrass; [1]): 10
- Plant response rating, Crabgrass (crabgrass; [2]): 7
- Plant response rating, Crabgrass (crabgrass; [3]): 9
- Crabgrass plant response rating (crabgrass; [4]): 10
- Crabgrass plant response rating (crabgrass; [5]): 10
- Crabgrass plant response rating (crabgrass; [9]): 4
- Plant response rating, Nutsedge (purple nutsedge; [7]): 0
- Nutsedge plant response rating (purple nutsedge; [1]): 0
- Plant response rating, Nutsedge (purple nutsedge; [2]): 0
- Plant response rating, Nutsedge (purple nutsedge; [3]): 0
- Nutsedge plant response rating (purple nutsedge; [4]): 0
- Plant response rating, S. Flatsedge (0 to 10 scale, 0 is no effect, 10 is complete control) (smallflower flatsedge; [10]): 3
- S. Flatsedge plant response rating (0 to 10 scale, 0 is no effect, 10 is complete control) (smallflower flatsedge; [11]): 3
- S. Flatsedge plant response rating (smallflower flatsedge; [12]): 9
- Plant response rating, Redroot pigweed (pigweed; [7]): 0
- Redroot pigweed plant response rating (pigweed; [1]): 2
- Plant response rating, Redroot pigweed (pigweed; [2]): 0
- Plant response rating, Redroot pigweed (pigweed; [3]): 0
- Redroot pigweed plant response rating (pigweed; [4]): 2
- Redroot pigweed plant response rating (pigweed; [5]): 8
- Plant response rating, Rape (rape; [7]): 7
- Rape plant response rating (rape; [1]): 7
- Plant response rating, Rape (rape; [2]): 0
- Plant response rating, Rape (rape; [3]): 0
- Rape plant response rating (rape; [4]): 2
- Rape plant response rating (rape; [5]): 8
- Plant response rating, Cocklebur (cocklebur; [6]): 0
- Plant response rating, Cocklebur (cocklebur; [7]): 0
- Cocklebur plant response rating (cocklebur; [1]): 1
- Plant response rating, Cocklebur (cocklebur; [2]): 0
- Plant response rating, Cocklebur (cocklebur; [3]): 0
- Cocklebur plant response rating (cocklebur; [4]): 0
- Cocklebur plant response rating (cocklebur; [5]): 0
- Cocklebur plant response rating (cocklebur; [9]): 0
- Plant response rating, Giant foxtail (giant foxtail; [6]): 9
- Plant response rating, Giant foxtail (giant foxtail; [7]): 9
- Giant foxtail plant response rating (giant foxtail; [1]): 9
- Plant response rating, Giant foxtail (giant foxtail; [2]): 9
- Plant response rating, Giant foxtail (giant foxtail; [3]): 9
- Giant foxtail plant response rating (giant foxtail; [4]): 10
- Giant foxtail plant response rating (giant foxtail; [5]): 10
- Giant foxtail plant response rating (giant foxtail; [9]): 8
- Wheat plant response rating (wheat; [1]): 4
- Plant response rating, Wheat (wheat; [2]): 0
- Plant response rating, Wheat (wheat; [3]): 3
- Wheat plant response rating (wheat; [4]): 7
- Wheat plant response rating (wheat; [5]): 8
- Plant response rating, Ducksalad (0 to 10 scale, 0 is no effect, 10 is complete control) (duck salad; [10]): 0
- Ducksalad plant response rating (0 to 10 scale, 0 is no effect, 10 is complete control) (duck salad; [11]): 0
- Ducksalad plant response rating (duck salad; [12]): 2
- Plant response rating, Barnyardgrass (0 to 10 scale, 0 is no effect, 10 is complete control) (bamyardgrass; [10]): 0
- Barnyardgrass plant response rating (0 to 10 scale, 0 is no effect, 10 is complete control) (bamyardgrass; [11]): 4
- Barnyardgrass plant response rating (bamyardgrass; [12]): 9
- Plant response rating, Morningglory (morningglory; [7]): 8
- Morningglory plant response rating (morningglory; [1]): 8
- Plant response rating, Morningglory (morningglory; [2]): 0
- Plant response rating, Morningglory (morningglory; [3]): 0
- Morningglory plant response rating (morningglory; [4]): 0
- Morningglory plant response rating (morningglory; [5]): 0
- Plant response rating, Rice (0 to 10 scale, 0 is no effect, 10 is complete control) (rice; [10]): 0
- Rice plant response rating (0 to 10 scale, 0 is no effect, 10 is complete control) (rice; [11]): 0
- Rice plant response rating (rice; [12]): 5
- Plant response rating, Velvetleaf (velvetleaf; [7]): 0
- Velvetleaf plant response rating (velvetleaf; [1]): 0
- Plant response rating, Velvetleaf (velvetleaf; [2]): 3
- Plant response rating, Velvetleaf (velvetleaf; [3]): 4
- Velvetleaf plant response rating (velvetleaf; [4]): 6
- Velvetleaf plant response rating (velvetleaf; [5]): 8
- Bedstraw plant response rating (bedstraw): 7
- Plant response rating, Corn (corn; [6]): 0
- Plant response rating, Corn (corn; [7]): 0
- Corn plant response rating (corn; [1]): 3
- Plant response rating, Corn (corn; [2]): 0
- Plant response rating, Corn (corn; [3]): 0
- Corn plant response rating (corn; [4]): 4
- Corn plant response rating (corn; [5]): 9
- Corn plant response rating (corn; [9]): 0
- Plant response rating, Sugarbeets (sugar beet; [7]): 7
- Sugarbeets plant response rating (sugar beet; [1]): 8
- Plant response rating, Sugarbeets (sugar beet; [2]): 0
- Plant response rating, Sugarbeets (sugar beet; [3]): 0
- Sugarbeets plant response rating (sugar beet; [4]): 0
- Sugarbeets plant response rating (sugar beet; [5]): 0
- Plant response rating, Soybean (soybean; [7]): 5
- Soybean plant response rating (soybean; [1]): 6
- Plant response rating, Soybean (soybean; [2]): 0
- Plant response rating, Soybean (soybean; [3]): 0
- Soybean plant response rating (soybean; [4]): 0
- Soybean plant response rating (soybean; [5]): 3
- Plant response rating, B. signalgrass (surinam grass; [6]): 0
- Plant response rating, B. signalgrass (surinam grass; [7]): 5
- B. signalgrass plant response rating (surinam grass; [1]): 7
- Plant response rating, B. signalgrass (surinam grass; [2]): 1
- Plant response rating, B. signalgrass (surinam grass; [3]): 5
- B. signalgrass plant response rating (surinam grass; [8]): 7
- B. signalgrass plant response rating (surinam grass; Preemergence, Rate 500 g/ha, scale of 0 to 10 where 0 is no effect and 10 is complete control): 10
- B. signalgrass plant response rating (surinam grass; [9]): 0

Source: patent US6737383B1, “Herbicidal oxadiazolidines” (priority 1999, dated 2004)
